The record followed here is patent publication US10813920B2, “Drug for treating corneal endothelium by promoting cell proliferation or inhibiting cell damage” (THE DOSHISHA, priority 2013, dated 2020).

Test [1] relates to human corneal endothelial cells. Put plainly: BrdU uptake ELISA in cultured human corneal endothelial cells (Example 2). It is filed as cell-based. The settings on record: ELISA after 3 days; 1, 3, 10, 30 μM; relative to control. The method, then: *The amount of IL-6 expression of human corneal endothelial cells was quantified by RT-PCR by the following method. Human corneal endothelial cells (n=3, passage 5) were cultured for 20 days in the presence of 10 μM of SB203580, and then RNA was extracted with RneasyMini (QIAGEN). 277 ng of total RNA was reverse-transcribed with RevertraAce (Toyobo) and cDNA synthesized into a template to perform PCR. 10 μl of PCR solution containing 1 μl of reaction mixture from single strand cDNA synthesis was heated for 1 minute at an initial temperature of 94° C. and then 1 minute at 94° C., 30 seconds at 54° C., and 30 seconds at 72° C. The temperature cycle was repeated 30 times. IL-6 sense primer: […] (SEQ ID NO: 1) IL-6 antisense primer: […] (SEQ ID NO: 2) *ELISA (BrdU): Cells were seeded on a 96-well culture plate at a seeding density of 5000 cells/well. […] The reaction was stopped with 1M sulfuric acid to measure the absorbance at 450 nm with a plate reader. […] The amount of IL-6 protein in a culture supernatant collected after 7 days was quantified in accordance with the manual of DuoSetELISA human IL-6 (R & D Cat # DY206). […] The plate was washed and the bound peroxidase was detected with a substrate solution (R&D Systems Cat # DY999). The coloring reaction was stopped with 2M of H2SO4 to read out the plate with Multimax (Promega) at […]. […]
A general note: An ELISA detects its analyte on a solid surface through an enzyme-linked reagent.

Test [2] has the same test system. Put plainly: Decrease in cell density of cultured human corneal endothelial cells (phase difference microscope). It is filed as cell-based. The following applies: 1, 3, 10 μM; after 20 days; vs control. From the text:
For corneal endothelial cells, cell density decreases about 0.5% annually with age in a living organism. Further, the cell density also decreases due to various corneal endothelial diseases. Cell culture causes hypertrophy of cells and cellular as in a living organism and cellular senescence like reduction as in a living organism, which is a decrease in cell density. In this regard, the effect of p38 MAP kinase signal inhibition was studied on cellular senescence like reduction, which is a decrease in corneal endothelial cell density. […] Decrease in cell density due to culturing was inhibited and the cell density increased in an SB203580 concentration-dependent manner (bottom panel: vertical axis indicates cell density (mm^2) and the horizontal axis indicates, from the left, control, SB203580 1 μM, 3 μM, and 10 μM. ** indicates statistical significance (p<0.05) with respect to the control).
Cellular senescence-like decrease similar to a living organism, such as hypertrophy and decrease in density of cells, occurs from cell culture. In this regard, the effect of p38 MAP kinase signal inhibition on cellular senescence-like decrease such as decrease in corneal endothelial cell density was studied. […]

For the compound `C[S+]([O-])c1ccc(-c2nc(-c3ccncc3)c(-c3ccc(F)cc3)[nH]2)cc1` (centres unmarked) [SB203580, 4-(4-fluorophenyl)-2-(4-methylsulfinylphenyl)-5-(4-pyridyl)-1H-imidazole], the BrdU uptake entry in test [1] is “significantly promoted”. Besides, the “Decrease in cell density due to culture” value in test [2] is reported as “inhibited in a SB203580 concentration dependent manner”.
